Assay results taken from patent publication US8188127B2, “Microbicidal composition” (Rohm and Haas Company, priority 2007, dated 2012).
“And” between values parts separate entries of the source, which are not always exact repeats. Equal entries are not always repeated. One block for each compound: values may come before it.

Key:
Assay type in all cases: cell-based
[1] = tested on: A. niger ATCC # 16404; assay: Microtiter plate MIC / synergy test (Kull synergy index), mold, PDB medium; conditions: for Ca: MIC of BIOBAN1246 alone / Ca: MIC of TCMTB alone: component alone; for Ca: ppm AI of first component (A) alone (MIC, QA) / Cb: ppm AI of MBIT alone (MIC, QB): A. niger; for Ca: MIC of first component (A) alone (QA) / Cb: MIC of MBIT alone (QB): PDB medium, 25° C.
Excerpt: (§1) One measure of synergism is the industrially accepted method described by Kull, F. C.; Eisman, P. C.; Sylwestrowicz, H. D. and Mayer, R. L., in Applied Microbiology 9:538-541 (1961), using the ratio determined by the formula: Qa/QA+Qb/QB=Synergy Index (“SI”) wherein: • QA=concentration of compound A (first component) in ppm, acting alone, which produced an end point (MIC of Compound A). • Qa=concentration of compound A in ppm, in the mixture, which produced an end point. • QB=concentration of compound B (second component) in ppm, acting alone, which produced an end point (MIC of Compound B). • Qb=concentration of compound B in ppm, in the mixture, which produced an end point.
(§2) When the sum of Qa/QA and Qb/QB is greater than one, antagonism is indicated. […] The lower the SI, the greater the synergy shown by that particular mixture. The minimum inhibitory concentration (MIC) of a microbicide is the lowest concentration tested under a specific set of conditions that prevents the growth of added microorganisms.
(§3) Synergy tests were conducted using standard microtiter plate assays with media designed for optimal growth of the test microorganism. Minimal salt medium supplemented with 0.2% glucose and 0.1% yeast extract (M9GY medium) was used for testing bacteria; Potato Dextrose Broth (PDB medium) was used for testing yeast and mold. In this method, a wide range of combinations of microbicides was tested by conducting high resolution MIC assays in the presence of various concentrations of MBIT. High resolution MICs were determined by adding varying amounts of microbicide to one column of a microtitre plate and doing subsequent […] dilutions using an automated liquid handling system to obtain a series of endpoints ranging from 2 ppm to 10,000 ppm active ingredient.
(§4) The synergy of the combinations of the present invention was determined against several microorganisms, as described in the Tables below. The bacteria were used at a concentration of about 5×10^6 bacteria per mL and the yeast and mold at 5×10^5 fungi per mL. These microorganisms are representative of natural contaminants in many consumer and industrial applications. […] (yeast and mold) or 30° C. (bacteria).
(§5) In each test, Second Component (B) was MBIT and the First Component (A) was the other commercial microbicide.

[2] = tested on: C. albicans ATCC # 10231; assay: Microtiter plate MIC / synergy test (Kull synergy index), yeast, PDB medium; conditions: for Ca: MIC of BIOBAN1246 alone / Ca: MIC of TCMTB alone: component alone; for Ca: ppm AI of first component (A) alone (MIC, QA) / Cb: ppm AI of MBIT alone (MIC, QB): C. albicans; for Ca: MIC of first component (A) alone (QA) / Cb: MIC of MBIT alone (QB): PDB medium, 25° C.
Excerpt: as §1, §2, §3, §4, §5

[3] = tested on: Ps. aeruginosa ATCC # 9027; assay: Microtiter plate MIC / synergy test (Kull synergy index), bacteria, M9GY medium; conditions: for Ca: ppm AI of first component (A) alone (MIC, QA) / Cb: ppm AI of MBIT alone (MIC, QB): Ps. aeruginosa
Method: as §2, §3
The bacteria were used at a concentration of about 5×10^6 bacteria per mL and the yeast and mold at 5×10^5 fungi per mL. These microorganisms are representative of natural contaminants in many consumer and industrial applications. […] (yeast and mold) or 30° C. (bacteria).
as §5

[4] = tested on: S. aureus ATCC # 6538; assay: as above; conditions: for Ca: ppm AI of first component (A) alone (MIC, QA) / Cb: ppm AI of MBIT alone (MIC, QB): S. aureus; for Ca: MIC of first component (A) alone (QA) / Cb: MIC of MBIT alone (QB): M9GY medium, 30° C.
Excerpt: as §1, §2, §3, §4, §5

[5] = A. niger ATCC # 16404, contact time 3 days
[6] = A. niger ATCC # 16404, contact time 7 days
[7] = C. albicans ATCC # 10231, contact time 48 hrs
[8] = C. albicans ATCC # 10231, contact time 72 hrs
[9] = Ps. aeruginosa ATCC # 9027, contact time 48 hrs, component alone
[10] = S. aureus ATCC # 6538, contact time 24 hrs, component alone
[11] = Ps. aeruginosa ATCC # 9027, contact time 48 hrs, M9GY medium, 30° C.
[12] = S. aureus ATCC # 6538, contact time 24 hrs
[13] = S. aureus ATCC # 6538, contact time 48 hrs

SMILES: CCC12COCN1COC2 [BIOBAN1246]
Ca: MIC of BIOBAN1246 alone [1, 5]: 650 ppm AI
Ca: MIC of BIOBAN1246 alone [1, 6]: 875 ppm AI
Ca: MIC of BIOBAN1246 alone [2, 7]: 3000 ppm AI
Ca: MIC of BIOBAN1246 alone [2, 8]: 4250 ppm AI
Ca: MIC of BIOBAN1246 alone ([3]; Ps. aeruginosa ATCC # 9027, contact time 24 hrs, component alone): 100 ppm AI
Ca: MIC of BIOBAN1246 alone [3, 9]: 150 ppm AI
Ca: MIC of BIOBAN1246 alone [4, 10]: 55 ppm AI
Ca: MIC of BIOBAN1246 alone ([4]; S. aureus ATCC # 6538, contact time 48 hrs, component alone): 55 ppm AI

Ca: ppm AI of first component (A) alone (MIC, QA) ([1]; contact time 3 days): 525 ppm AI
Ca: ppm AI of first component (A) alone (MIC, QA) ([1]; contact time 7 days): 875 ppm AI
Ca: ppm AI of first component (A) alone (MIC, QA) ([2]; contact time 48 hrs): 1100 ppm AI
Ca: ppm AI of first component (A) alone (MIC, QA) ([2]; contact time 72 hrs): 1100 ppm AI
Ca: ppm AI of first component (A) alone (MIC, QA) ([3]; contact time 24 hrs): 100 ppm AI
Ca: ppm AI of first component (A) alone (MIC, QA) ([3]; contact time 48 hrs): 100 ppm AI
Ca: ppm AI of first component (A) alone (MIC, QA) ([4]; contact time 24 hrs): 55 ppm AI
Ca: ppm AI of first component (A) alone (MIC, QA) ([4]; contact time 48 hrs): 55 ppm AI
SMILES: CC1(C)COCN1 [BIOBAN 1135, 4,4-dimethyloxazolidine]

Ca: ppm AI of first component (A) alone (MIC, QA) ([1]; contact time 3 days): 425 ppm AI
Ca: ppm AI of first component (A) alone (MIC, QA) ([1]; contact time 7 days): 650 ppm AI
Ca: ppm AI of first component (A) alone (MIC, QA) ([2]; contact time 48 hrs): 875 ppm AI
Ca: ppm AI of first component (A) alone (MIC, QA) ([2]; contact time 72 hrs): 875 ppm AI
Ca: ppm AI of first component (A) alone (MIC, QA) ([3]; contact time 24 hrs): 55 ppm AI
Ca: ppm AI of first component (A) alone (MIC, QA) ([3]; contact time 48 hrs): 55 ppm AI
Ca: ppm AI of first component (A) alone (MIC, QA) ([4]; contact time 24 hrs): 55 ppm AI
Ca: ppm AI of first component (A) alone (MIC, QA) ([4]; contact time 48 hrs): 55 ppm AI
SMILES: OCCN1CN(CCO)CN(CCO)C1 [BIOBAN GK, hexahydro-1,3,5-tris(2-hydroxyethyl)-s-triazine]

Ca: MIC of first component (A) alone (QA) [1, 5]: 650 ppm AI
Ca: MIC of first component (A) alone (QA) [1, 6]: 875 ppm AI
Ca: MIC of first component (A) alone (QA) [2, 7]: 65 ppm AI
Ca: MIC of first component (A) alone (QA) [2, 8]: 87.5 ppm AI
Ca: MIC of first component (A) alone (QA) [3, 11]: >11000 ppm AI
Ca: MIC of first component (A) alone (QA) [4, 12]: 425 ppm AI
Ca: MIC of first component (A) alone (QA) [4, 13]: 425 ppm AI
SMILES: CCCCCCCC(=O)O [Caprylic acid]

SMILES: Cn1sc2ccccc2c1=O [MBIT, N-methyl-1,2-benzisothiazolin-3-one]
Cb: MIC of MBIT alone (QB) [1, 5]: 37.5 ppm AI and 75 ppm AI
Cb: MIC of MBIT alone ([1]; A. niger ATCC # 16404, contact time 3 days, component alone (Table 8)): 75 ppm AI
Cb: MIC of MBIT alone ([1]; A. niger ATCC # 16404, contact time 3 days, component alone (Table 9)): 37.5 ppm AI
Cb: MIC of MBIT alone ([1]; A. niger ATCC # 16404, contact time 3 days, component alone (Table 10)): 37.5 ppm AI
Cb: MIC of MBIT alone (QB) [1, 6]: 150 ppm AI
Cb: MIC of MBIT alone ([1]; A. niger ATCC # 16404, contact time 7 days, component alone (Table 8)): 150 ppm AI
Cb: MIC of MBIT alone ([1]; A. niger ATCC # 16404, contact time 7 days, component alone (Table 9)): 150 ppm AI
Cb: MIC of MBIT alone ([1]; A. niger ATCC # 16404, contact time 7 days, component alone (Table 10)): 150 ppm AI
Cb: ppm AI of MBIT alone (MIC, QB) ([1]; contact time 3 days): 37.5 ppm AI and 75 ppm AI
Cb: ppm AI of MBIT alone (MIC, QB) ([1]; contact time 7 days): 150 ppm AI
Cb: MIC of MBIT alone (QB) [2, 7]: 30 ppm AI
Cb: MIC of MBIT alone ([2]; C. albicans ATCC # 10231, contact time 48 hrs, component alone (Table 8)): 30 ppm AI
Cb: MIC of MBIT alone ([2]; C. albicans ATCC # 10231, contact time 48 hrs, component alone (Table 9)): 30 ppm AI
Cb: MIC of MBIT alone ([2]; C. albicans ATCC # 10231, contact time 48 hrs, component alone (Table 10)): 30 ppm AI
Cb: MIC of MBIT alone (QB) [2, 8]: 60 ppm AI and 30 ppm AI
Cb: MIC of MBIT alone ([2]; C. albicans ATCC # 10231, contact time 72 hrs, component alone (Table 8)): 30 ppm AI
Cb: MIC of MBIT alone ([2]; C. albicans ATCC # 10231, contact time 72 hrs, component alone (Table 9)): 30 ppm AI
Cb: MIC of MBIT alone ([2]; C. albicans ATCC # 10231, contact time 72 hrs, component alone (Table 10)): 60 ppm AI
Cb: ppm AI of MBIT alone (MIC, QB) ([2]; contact time 48 hrs): 30 ppm AI
Cb: ppm AI of MBIT alone (MIC, QB) ([2]; contact time 72 hrs): 30 ppm AI
Cb: MIC of MBIT alone (QB) ([3]; Ps. aeruginosa ATCC # 9027, contact time 24 hrs, M9GY medium, 30° C.): 75 ppm AI
Cb: MIC of MBIT alone ([3]; Ps. aeruginosa ATCC # 9027, contact time 24 hrs, component alone (Table 8)): 75 ppm AI
Cb: MIC of MBIT alone ([3]; Ps. aeruginosa ATCC # 9027, contact time 24 hrs, component alone (Table 9)): 75 ppm AI
Cb: MIC of MBIT alone (QB) [3, 11]: 125 ppm AI
Cb: MIC of MBIT alone ([3]; Ps. aeruginosa ATCC # 9027, contact time 48 hrs, component alone (Table 8)): 125 ppm AI
Cb: MIC of MBIT alone ([3]; Ps. aeruginosa ATCC # 9027, contact time 48 hrs, component alone (Table 9)): 125 ppm AI
Cb: MIC of MBIT alone ([3]; Ps. aeruginosa ATCC # 9027, contact time 48 hrs, component alone (Table 10)): 125 ppm AI
Cb: ppm AI of MBIT alone (MIC, QB) ([3]; contact time 24 hrs): 75 ppm AI
Cb: ppm AI of MBIT alone (MIC, QB) ([3]; contact time 48 hrs): 125 ppm AI
Cb: MIC of MBIT alone (QB) [4, 12]: 15 ppm AI and 30 ppm AI
Cb: MIC of MBIT alone ([4]; S. aureus ATCC # 6538, contact time 24 hrs, component alone (Table 8)): 30 ppm AI
Cb: MIC of MBIT alone ([4]; S. aureus ATCC # 6538, contact time 24 hrs, component alone (Table 9)): 30 ppm AI
Cb: MIC of MBIT alone ([4]; S. aureus ATCC # 6538, contact time 24 hrs, component alone (Table 10)): 15 ppm AI
Cb: MIC of MBIT alone (QB) [4, 13]: 30 ppm AI
Cb: MIC of MBIT alone ([4]; S. aureus ATCC # 6538, contact time 48 hrs, component alone (Table 8)): 30 ppm AI
Cb: MIC of MBIT alone ([4]; S. aureus ATCC # 6538, contact time 48 hrs, component alone (Table 9)): 30 ppm AI
Cb: ppm AI of MBIT alone (MIC, QB) ([4]; contact time 24 hrs): 15 ppm AI and 30 ppm AI
Cb: ppm AI of MBIT alone (MIC, QB) ([4]; contact time 48 hrs): 30 ppm AI

SMILES: O=C([O-])CNCO.[Na+] [SUTTOCIDE A, sodium hydroxymethylglycinate]
Ca: ppm AI of first component (A) alone (MIC, QA) ([1]; contact time 3 days): 875 ppm AI
Ca: ppm AI of first component (A) alone (MIC, QA) ([1]; contact time 7 days): 1100 ppm AI
Ca: ppm AI of first component (A) alone (MIC, QA) ([2]; contact time 48 hrs): 3000 ppm AI
Ca: ppm AI of first component (A) alone (MIC, QA) ([2]; contact time 72 hrs): 3000 ppm AI
Ca: ppm AI of first component (A) alone (MIC, QA) ([3]; contact time 24 hrs): 87.5 ppm AI
Ca: ppm AI of first component (A) alone (MIC, QA) ([3]; contact time 48 hrs): 110 ppm AI
Ca: ppm AI of first component (A) alone (MIC, QA) ([4]; contact time 24 hrs): 110 ppm AI
Ca: ppm AI of first component (A) alone (MIC, QA) ([4]; contact time 48 hrs): 110 ppm AI

Ca: MIC of TCMTB alone [1, 5]: 3 ppm AI
Ca: MIC of TCMTB alone [1, 6]: 8.75 ppm AI
Ca: MIC of TCMTB alone [2, 7]: 4.25 ppm AI
Ca: MIC of TCMTB alone [2, 8]: 5.25 ppm AI
Ca: MIC of TCMTB alone [3, 9]: 212.5 ppm AI
Ca: MIC of TCMTB alone [4, 10]: 26.25 ppm AI
SMILES: N#CSCSc1nc2ccccc2s1 [TCMTB]
